Experimental data published in PMC7340027 (Cell Reports, 2020).
Read-outs that look alike come from different tables or passages of the source. Marks after values point to notes of the source that are not given here.

Legend:
Calu3 2B4 cells [1] = system: Calu3 2B4 cells
SARS-CoV-2 [2] = assay: microbe, parasite or virus in culture; format: cell-based, SARS-CoV-2 clinical isolate 2019-nCoV/USA-WA1/2020
Calu3 2B4 cells [3] = settings: human
SARS-CoV-2 [4] = assay: microbe, parasite or virus in culture; format: cell-based, SARS-CoV-2 clinical isolate 2019-nCoV/USA-WA1/2020; remark: listed apart in the source
Vero E6 cells [5] = system: Vero E6 cells
HAE cultures [6] = settings: female, human
SARS-CoV-2 [7] = format: cell-based, SARS-CoV-2 clinical isolate 2019-nCoV/USA-WA1/2020
HAE cultures [8] = system: HAE cultures
Vero E6 cells [9] = system: Vero E6 cells; remark: listed apart in the source
[10] = Severe acute respiratory syndrome coronavirus 2, Calu-3 2B4, read-out: EC90 (infectious viral titer)
[11] = Severe acute respiratory syndrome coronavirus 2, Calu-3 2B4, read-out: EC90 (qRT-PCR)
[12] = Severe acute respiratory syndrome coronavirus 2, Calu-3 2B4, read-out: Genome copy EC50
[13] = Severe acute respiratory syndrome coronavirus 2, Calu-3 2B4, read-out: Plaque assay EC50

Structure (SMILES)	cytotoxicity (Calu3 2B4 cells [1])	EC90 (SARS-CoV-2 [2]; [10]) [nM]	EC90 (SARS-CoV-2 [2]; [11]) [nM]	EC50 (SARS-CoV-2 [2]; [12]) [nM]	EC50 (SARS-CoV-2 [2]; [13]) [nM]	RDV-TP at 24 h (Calu3 2B4 cells [3])	EC90 (SARS-CoV-2 [4]; Severe acute respiratory syndrome coronavirus 2, Vero C1008, read-out: EC90 (infectious viral titer)) [nM]	EC90 (SARS-CoV-2 [4]; Severe acute respiratory syndrome coronavirus 2, Vero C1008, read-out: EC90 (qRT-PCR)) [nM]	cytotoxicity (Vero E6 cells [5])	difference in RDV-TP between the two HAE donor cultures (HAE cultures [6])	inhibition of infectious virus production (SARS-CoV-2 [7])	cytotoxicity (HAE cultures [8])	RDV-TP at 24 h (Vero E6 cells [9]; African green monkey)	RDV-TP levels in Vero E6 cells lower than in HAE cultures (Vero E6 cells [9]; African green monkey) [fold]	RDV-TP levels in Vero E6 cells lower than in Calu3 2B4 (Vero E6 cells [9]; African green monkey (Vero E6) and human (Calu3 2B4))
N#C[C@@]1(c2ccc3c(N)ncnn23)O[C@H](CO)[C@@H](O)[C@H]1O [GS-441524]	No significant cytotoxicity	1340	1370	1090	620	0.85 ± 0.16 ^e pmol/million cells	710	800	No significant cytotoxicity						
CCC(CC)COC(=O)[C@H](C)N[P@](=O)(OC[C@H]1O[C@@](C#N)(c2ccc3c(N)ncnn23)[C@H](O)[C@@H]1O)Oc1ccccc1 [RDV, Remdesivir]	No significant cytotoxicity	2480	1280	600	280				No significant cytotoxicity	less than 3 fold	more than 100 fold	did not cause cytotoxicity	0.50 ± 0.15 ^d pmol/million cells	~20	approximately 4 fold
